The source of these data is patent US9556217B2, “Amphiphilic compounds” (WISCONSIN ALUMNI RESEARCH FOUNDATION, priority 2012, dated 2017).

The target of the test is T1, cytidine-5′-monophosphate-sialic acid transporter (CMP-Sia) (Mus musculus, UniProt Q61420).
T1 construct: GFP-His (C, cleaved yes); made in house; host or cells: Saccharomyces cerevisiae
T1 sequence (Q61420 1-336): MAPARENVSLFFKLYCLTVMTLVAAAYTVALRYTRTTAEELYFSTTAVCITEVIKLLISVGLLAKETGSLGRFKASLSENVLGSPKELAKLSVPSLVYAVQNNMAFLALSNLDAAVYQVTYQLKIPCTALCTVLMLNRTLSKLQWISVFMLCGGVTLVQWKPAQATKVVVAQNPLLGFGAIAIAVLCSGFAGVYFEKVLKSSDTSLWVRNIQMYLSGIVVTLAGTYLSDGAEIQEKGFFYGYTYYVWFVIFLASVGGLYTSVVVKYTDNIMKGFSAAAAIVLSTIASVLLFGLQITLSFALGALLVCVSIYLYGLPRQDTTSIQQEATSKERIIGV
Put plainly: CMP-Sia gel filtration integrity. The following applies: detergent at 0.042 wt %; 2 hours at 30° C. On the set-up: species or system murine. As for the experimental part: The promising behavior manifested by GDN in terms of the stability of bR and the R. capsulatus superassembly prompted the examining this amphiphile with another membrane protein, the murine cytidine-5′-monophosphate-sialic acid transporter (CMP-Sia) (Newstead et al., Proc. Natl. Acad. Sci. USA 2007, 104, 13936-13941). The protein was initially extracted from S. cereviseae membranes with 1% DDM and isolated in buffer containing 0.03% DDM. The final purified protein (6 mg/mL) was diluted 1:100 into solutions containing DDM or GDN at 0.042 wt % (which corresponds to CMC+0.033 wt % for DDM and CMC+0.04 wt % for GDN). The DDM- and GDN-solubilized CMP-Sia were analyzed by gel filtration before and after incubation for 2 hours at 30° C. (FIG. 5a, b).
Protein integrity was assessed using the procedure reported by Chae and coworkers (Nat. Methods 2010, 7, 1003-1008) using CMP-Sia instead of SQR.
CMP-Sia and GlpG were expressed as fusion proteins with a C-terminal GFP-His tag in Saccharomyces cerevisiae and Escherichia coli respectively. All steps were carried out at 4° C. Membranes containing CMP-Sia and GlpG were resuspended in PBS, 10 mM imidazole pH 8.0, 150 mM NaCl, 10% glycerol and solubilized in 1% DDM for 1 hour with mild agitation. Supernatant containing DDM-solubilized protein was harvested after ultracentrifugation at 100,000 g for 45 min. […]
In general terms: In gel filtration, larger molecules generally elute earlier.

Where only a bound is given, the exact number is not on record here.

In the case of `CCCCCCCCCCCCO[C@@H]1O[C@H](CO)[C@@H](O[C@H]2O[C@H](CO)[C@@H](O)[C@H](O)[C@H]2O)[C@H](O)[C@H]1O` [DDM, dodecyl-β-D-maltoside, reference compound], the “CMP-Sia integrity after incubation (gel filtration)” value was approximately 50%. On to `C[C@@H]1CC[C@@]2(OC1)O[C@H]1C[C@H]3[C@@H]4CC=C5C[C@@H](OCCC(CO[C@@H]6OC(CO)[C@@H](O[C@H]7OC(CO)[C@@H](O)C(O)C7O)C(O)C6O)CO[C@@H]6OC(CO)[C@@H](O[C@H]7OC(CO)[C@@H](O)C(O)C7O)C(O)C6O)CC[C@]5(C)[C@H]4CC[C@]3(C)[C@@H]1[C@@H]2C` (some centres unmarked) [GDN, glyco-diosgenin], for which the “CMP-Sia integrity after incubation (gel filtration)” value is given as more than 90%.
